Experimental data taken from PMC11994314, “Binding mode between peptidyl-tRNA hydrolase and the peptidyl-A76 moiety of the substrate” (The Journal of Biological Chemistry, 2025).

What was measured:
[1] = target: T1, TtPth (Thermus thermophilus peptidyl-tRNA hydrolase) (Thermus thermophilus, UniProt Q5SHZ2); assay: X-ray crystal structure (co-crystallisation), […] Å; type: binding; settings: 40 mM AMP in reservoir, MES pH 5.8, 20 °C; active site cleft, acidic pocket, A76 mimic
T1 construct: gene pth; wild type, full length (183 residues inferred from deletion of C-terminal 16 leaving Gly167 as last residue); monomer; wild type for crystals expressed and purified as described previously
T1 sequence (Q5SHZ2 whole entry): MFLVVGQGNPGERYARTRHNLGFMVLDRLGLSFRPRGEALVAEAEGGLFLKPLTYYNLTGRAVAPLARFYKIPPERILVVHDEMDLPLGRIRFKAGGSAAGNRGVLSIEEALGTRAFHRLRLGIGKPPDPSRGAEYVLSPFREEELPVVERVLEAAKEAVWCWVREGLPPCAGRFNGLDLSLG

[2] = target: the molecule itself; assay: crystal structure; crystals of ΔC16 TtPth (13 mg/ml, with 20 mM 3′-(N-acetyl-L-alanyl)amino-3′-deoxyadenosine, which was not seen in the density); 0.5 M (NH4)2SO4, 0.1 M Tris-HCl pH 7.5, 30% PEG600, 10% glycerol, 20 °C; contact between crystallographically related molecules, 2.10 Å

Molecule	X-ray crystal structure (co-crystallisation), 1.60 Å [1]	binding result [2]
Nc1ncnc2c1ncn2[C@@H]1O[C@H](COP(=O)(O)O)[C@@H](O)[C@H]1O [adenosine 5′-monophosphate]	The structure of TtPth⋅AMP revealed that AMP is bound to an acidic pocket	
C-terminal 16-amino acid deletion mutant of Thermus thermophilus HB8 peptidyl-tRNA hydrolase (ΔC16 TtPth) (domain or fragment, UniProt Q5SHZ2 1-167, looked up, Peptidyl-tRNA hydrolase (Pth, Pth1 type) of Thermus thermophilus HB8, lacking the C-terminal 16 amino acid residues (the C-terminal α-helix); the construct ends with Arg165-Glu166-Gly167; The His-tag was removed with thrombin; also called TtPth⋅tripeptide; C-terminal α-helix (C-terminal 16 amino acid residues) deletion mutant; source: E. coli BL21(DE3), purified (Ni-chelating column, thrombin …)) MFLVVGQGNPGERYARTRHNLGFMVLDRLGLSFRPRGEALVAEAEGGLFLKPLTYYNLTGRAVAPLARFYKIPPERILVVHDEMDLPLGRIRFKAGGSAAGNRGVLSIEEALGTRAFHRLRLGIGKPPDPSRGAEYVLSPFREEELPVVERVLEAAKEAVWCWVREG		binds
